Test system: venous thromboembolism (VTE) in patients hospitalized for acute medical illness
Experiment: MAGELLAN (Study 1): efficacy of oral rivaroxaban 10 mg OD 35 days vs sc enoxaparin 40 mg OD 10 days then placebo
Type: in vivo
Description: The objective of Study 1 (MAGELLAN or MAGELLAN Study) was to compare efficacy and safety of venous thromboembolism (VTE) prophylaxis with oral rivaroxaban 10 mg once daily administered for 35±4 days (hereafter referred to as 35 days or Day 35) to subcutaneous enoxaparin 40 mg once daily (OD) administered for 10±4 days (hereafter referred to as 10 days or Day 10) in men and women aged 40 years or above, who have been hospitalized for a medical illness.
Diagnosis and main criteria for inclusion in Study 1 was men and women 40 years or above and at risk for VTE being hospitalized for acute medical illness conditions, including: heart failure (New York Heart Association [NYHA] class III or IV); active cancer (e.g., admitted for chemotherapy or for the treatment of a complication of active cancer); acute ischemic stroke; acute infectious and inflammatory diseases, including acute rheumatic diseases; and acute respiratory insufficiency. Also at least one additional risk factor for VTE, including: severe varicosis (varicosities); chronic venous insufficiency; history of cancer; history of deep vein thrombosis (DVT) or pulmonary embolism (PE); history of heart failure (NYHA class III or IV); thrombophilia (hereditary or acquired); recent major surgery (6-12 weeks); recent serious trauma (6-12 weeks); hormone replacement therapy; advanced age greater than or equal to 75 years; morbid obesity (body mass index (BMI) 35 kg/m^2 or higher); and acute infectious disease contributing to hospitalization.
The study was conducted in a prospective, randomized, double-blind, double dummy, active comparator-controlled, multicenter and multinational design. There were 8101 subjects were randomized at 556 study centers in 52 countries to one of the two treatment groups. Of the 8101 randomized subjects, 4050 were randomized to active rivaroxaban and 4051 were randomized to active enoxaparin.
Primary Endpoints: The primary efficacy variable was a composite of the number of events of: asymptomatic proximal DVT in lower extremity detected by mandatory bilateral lower extremity venous ultrasonography; symptomatic DVT in lower extremity, proximal or distal; symptomatic, non-fatal PE; and VTE-related death defined as either a well-documented fatal PE, or sudden death with no other plausible explanation. The two primary efficacy endpoints were (i) test of superiority at Day 35 (Days 29-41, inclusive) and (ii) test of non-inferiority at Day 10 (Days 6-15, inclusive).
Secondary Endpoints: The first major secondary efficacy endpoint was defined as a composite of the test of superiority at Day 35 with component of VTE-related death substituted by all-cause mortality, up to Day 35. The second major efficacy secondary efficacy endpoint was the test for superiority at Day 10 using the same composite endpoint as the Day 10 non-inferiority test.
For both primary efficacy endpoints, the relative risk ratio (rivaroxaban/enoxaparin) with respect to the incidences of the primary efficacy endpoint was estimated based on a stratified estimator using Mantel-Haenszel weights (based on sample sizes by geographic region). The corresponding asymptotic 2-sided 95% confidence interval based on the approximation to the normal distribution was determined. Sensitivity analyses were performed for the primary efficacy endpoints.
The primary efficacy variable was a composite of the number of events of (1) asymptomatic proximal DVT in lower extremity detected by mandatory bilateral lower extremity venous ultrasonography; (2) symptomatic DVT in lower extremity, proximal or distal; (3) symptomatic, nonfatal PE; and (4) VTE-related death. […]

[1] = Day 10 + 5, PP Day 10 plus major and clinically relevant bleeds
[2] = Day 10 + 5, per protocol Day 10 analysis set
[3] = Day 10 + 5 up to Day 35 + 6, mITT (Day 10 to Day 35) analysis set
[4] = Day 10 + 5 up to Day 35 + 6, mITT (Day 10 to Day 35) analysis set, listed as rivaroxaban
[5] = Day 35 + 6, mITT Day 35 analysis set
[6] = Day 35 + 6, mITT Day 35 analysis set, listed as rivaroxaban
[7] = Day 35 + 6, mITT Day 35 plus major and clinically relevant bleeds
[8] = Day 35, mITT Day 35 analysis set
[9] = rivaroxaban-placebo phase (Day 10 to Day 35), mITT (Day 10 to Day 35)

## O=C(NC[C@H]1CN(c2ccc(N3CCOCC3=O)cc2)C(=O)O1)c1ccc(Cl)s1 [Rivaroxaban, 5-chloro-N-({(5S)-2-oxo-3-[4-(3-oxo-4-morpholinyl)phenyl]-1,3,oxazolidin-5-yl}methyl)-2-thiophenecarboxamide]
Day 10
  Major vascular events (CV death, acute myocardial infarction, or acute ischemic stroke), incidence: 1.0%
  Symptomatic VTE excluding VTE-related death, incidence: 0.5%
  Symptomatic VTE including death, incidence: 0.7%
[1]
  Net clinical benefit component: asymptomatic lower proximal deep vein thrombosis: 71 (2.4%)
  Net clinical benefit component: clinically relevant non-major bleeding: 51 (1.7%)
  Net clinical benefit component: death (pulmonary embolism): 3 (0.1%)
  Net clinical benefit component: major bleeding: 9 (0.3%)
  Net clinical benefit component: symptomatic deep vein thrombosis in lower extremity: 7 (0.2%)
  Net clinical benefit component: symptomatic non-fatal pulmonary embolism: 6 (0.2%)
  Net clinical benefit component: venous thromboembolism related death: 3 (0.1%)
  Net clinical benefit, any event, incidence: 134 (4.5%)
Day 10 + 5, PP Day 10 plus major and clinically relevant bleeds, listed as rivaroxaban
  Net clinical benefit, any event, incidence: 4.5%
[2]
  Asymptomatic proximal deep vein thrombosis in lower extremity, incidence: 71 (2.4%)
  Death (pulmonary embolism cannot be excluded), incidence: 3 (0.1%)
  Primary efficacy composite, any event, incidence: 78 (2.7%)
  Symptomatic deep vein thrombosis in lower extremity, incidence: 7 (0.2%)
  Venous thromboembolism related death, incidence: 3 (0.1%)
Day 10 + 5, per protocol Day 10 analysis set, listed as rivaroxaban
  Primary efficacy composite, any event, incidence: 2.7%
[3]
  Asymptomatic proximal deep vein thrombosis in lower extremity, incidence: 81 (2.1%)
  Death (pulmonary embolism cannot be excluded), incidence: 8 (0.3%)
  Death (pulmonary embolism), incidence: 1 (<0.1%)
  Symptomatic deep vein thrombosis in lower extremity, incidence: 3 (0.1%)
  Symptomatic non-fatal pulmonary embolism, incidence: 1 (<0.1%)
  Venous thromboembolism related death, incidence: 9 (0.3%)
Day 10 + 5 up to Day 35 + 6, mITT (Day 10 to Day 35) analysis set, rivaroxaban-placebo phase
  Primary efficacy composite, any event, incidence: 72 (2.5%)
Day 10 + 5 up to Day 35 + 6, mITT (Day 10 to Day 35) analysis set, rivaroxaban-placebo phase, listed as rivaroxaban
  Primary efficacy composite, any event, incidence: 2.5%
[4]
  Asymptomatic proximal deep vein thrombosis in lower extremity, incidence: 2.1%
  Venous thromboembolism related death, incidence: 0.3%
Day 10, PP Day 10 analysis set
  Relative risk (rivaroxaban/enoxaparin), primary efficacy composite: 0.968
  Relative risk reduction, primary efficacy composite: 3.25%
Day 10 PP, active cancer
  Relative risk vs enoxaparin, subgroup: 2.500
Day 10 PP, age subgroup 65 to <75 years
  Relative risk vs enoxaparin, subgroup: 1.88
Day 10 PP, complete immobilization >6 days post randomization
  Relative risk vs enoxaparin, subgroup: 0.671
Day 10 PP, complete immobilization post randomization 4-6 days
  Relative risk vs enoxaparin, subgroup: 1.75
Day 35
  Major vascular events, incidence: 1.8%
  Symptomatic VTE excluding VTE-related death, incidence: 0.6%
  Symptomatic VTE including death, incidence: 1.0%
[5]
  Asymptomatic proximal deep vein thrombosis in lower extremity, incidence: 103 (3.5%)
  Death (pulmonary embolism cannot be excluded), incidence: 18 (0.6%)
  Death (pulmonary embolism), incidence: 1 (<0.1%)
  Primary efficacy composite, any event, incidence: 131 (4.4%)
  Symptomatic deep vein thrombosis in lower extremity, incidence: 13 (0.4%)
  Symptomatic non-fatal pulmonary embolism, incidence: 10 (0.3%)
  Venous thromboembolism related death, incidence: 19 (0.6%)
[6]
  Asymptomatic proximal deep vein thrombosis in lower extremity, incidence: 3.5%
  Primary efficacy composite, any event, incidence: 4.4%
  Venous thromboembolism related death, incidence: 0.6%
[7]
  Net clinical benefit component: asymptomatic lower proximal deep vein thrombosis: 104 (3.4%)
  Net clinical benefit component: clinically relevant non-major bleeding: 124 (4.1%)
  Net clinical benefit component: death (pulmonary embolism cannot be excluded): 18 (0.6%)
  Net clinical benefit component: death (pulmonary embolism): 1 (<0.1%)
  Net clinical benefit component: major bleeding: 43 (1.4%)
  Net clinical benefit component: symptomatic deep vein thrombosis in lower extremity: 13 (0.4%)
  Net clinical benefit component: symptomatic non-fatal pulmonary embolism: 10 (0.3%)
  Net clinical benefit component: venous thromboembolism related death: 19 (0.6%)
  Net clinical benefit, any event, incidence: 286 (9.4%)
Day 35 + 6, mITT Day 35 plus major and clinically relevant bleeds, listed as rivaroxaban
  Net clinical benefit, any event, incidence: 9.4%
[8]
  Relative risk (rivaroxaban/enoxaparin), primary efficacy composite: 0.771
  Relative risk reduction, primary efficacy composite: 22.89%
Day 35, mITT Day 35 expanded
  Composite endpoint including all-cause mortality, incidence: 8.6%
  Relative risk, composite endpoint including all-cause mortality: 0.931
Day 35 mITT, active cancer
  Relative risk vs enoxaparin, subgroup: 1.340
Day 35 mITT, acute infectious and inflammatory disease
  Relative risk vs enoxaparin, subgroup: 0.657
Day 35 mITT, age subgroup 75 years
  Relative risk vs enoxaparin, subgroup: 0.624
Day 35 mITT, subjects in Western Europe (including Australia, New Zealand, Israel)
  Relative risk vs enoxaparin, subgroup: 0.5
Day 90
  All-cause mortality, incidence: 6.7%
  Major vascular events, incidence: 2.8%
  Symptomatic VTE excluding VTE-related death, incidence: 0.7%
  Symptomatic VTE including death, incidence: 1.7%
[9]
  Relative risk reduction, primary efficacy composite: 35.14%
  Relative risk, primary efficacy composite: 0.649

— patent publication US20200397795A1, “PROPHYLACTIC TREATMENT OF VENOUS THROMBOEMBOLISM” (JANSSEN PHARMACEUTICALS, INC., priority 2019, published 2020)
